Results from patent US10865203B2, “Ligands selective to alpha 6 subunit-containing GABAA receptors and their methods of use” (UWM Research Foundation, Inc., priority 2015, dated 2020).
Entries after “also recorded” stand apart in the source; their conditions may differ.

Columns and labels:
[1] = Microsomal stability assay, mouse liver microsomes; format: in vitro ADME; conditions: 10 μM test compound, 0.5 mg/mL protein, 37° C.
Procedure: (§1) 4 μL of 1 mM test compound at a final concentration of 10 μM dissolved in DMSO/ACN/Methanol/Ethanol was preincubated at 37° C. for 5 minutes on a digital heating shaking dry bath (Fischer scientific, Pittsburgh, Pa.) in a mixture containing 282 μL of water, 80 μL of phosphate buffer (0.5 M, pH 7.4), 20 μL of NADPH Regenerating System Solution A (BD Bioscience, San Jose, Calif.) and 4 μL of NADPH Regenerating System Solution B (BD Bioscience, San Jose, Calif.) in a total volume of 391.2 μL. Following preincubation, the reaction was initiated by addition of 8.8 μL of either human liver microsomes (BD Gentest, San Jose, Calif.), mouse liver microsomes (Life technologies, Rockford, Ill.), at a protein concentration of 0.5 mg/mL. Aliquots of 50 μL were taken at time intervals of 0 (without microsomes), 10, 20, 30, 40, 50 and 60 minutes. Each aliquot was added to 100 μL of cold acetonitrile solution containing 1 μM/2 μM internal standard. This was followed by sonication for 10 seconds and centrifugation at 10,000 rpm for 5 minutes. 100 μL of the supernatant was transferred into Spin-X HPLC filter tubes (Corning Incorporated, NY) and centrifuged at 13,000 rpm for 5 minutes. […] The ratio of the peak areas of the internal standard and test compound was calculated for every time point and the natural log of the ratio were plotted against time to determine the linear slope (k). […] All experiments were repeated three times in duplicates.

[2] = Microsomal stability assay, human liver microsomes; format: in vitro ADME; conditions: 10 μM test compound, 0.5 mg/mL protein, 37° C.
Procedure: as §1

[3] = test system: METH-impaired PPI in C57/B6 mice; test: PPI test, methamphetamine-impaired prepulse inhibition; format: in vivo, mouse; conditions: for rescue of METH-impaired PPI: mice, compound 10 mg/kg i.p. 15 min before METH 2 mg/kg i.p.
Procedure: All animal experiments conducted at NTU were approved by the Institutional Animal Care and Use Committee of College of Medicine, National Taiwan University. C57/B6 (8-10 weeks) mice were used for the PPI test and Wistar rats (8-9 weeks) were used in the migraine model. Animals were housed in an animal room with a 12-h light/12-h dark cycle and free access to food and water.
The PPI test was conducted with a PPI apparatus (SR-LAB, San Diego Instruments, San Diego, Calif.) consisting of a startle chamber equipped with various programming acoustic stimulations. After acclimation, the mouse was gently placed in the startle chamber for a 4 min acclimation period with a background noise of 65 dB, which continued throughout the whole PPI test session. One PPI test session consisted of 4 types of startle trials, including the trial with the startle pulse (115 dB) alone (PULSEALONE; 115 dB, 20 ms), two trials with the startle pulse paired with 71 and 77 dB prepulses, respectively (PREPULSE+PULSE; 71 dB+115 dB and 77 dB+115 dB), and the trial without stimulus (NOSTIM; background 65 dB only). A test session started and ended, respectively, with four NOSTIM trials and four PULSEALONE trials. In between, each of the four types of trials was presented 14 times randomly, that is, 56 trials were given in a test session. The intertrial interval was given randomly from 5 to 20 s. In the PREPULSE+PULSE trial, a 71 or 77 dB prepulse was given 120 ms before the 115 dBpulse. The magnitude of PPI (PPI %) was determined, after summarizing the startle responses in PULSEALONE and PREPULSE+PULSE trials, according to the equation (PULSEALON−PREPULSE+PULSE)/PULSEALONE×100%. The tested compound or vehicle was given to the animal for 15 min, followed by methamphetamine (2 mg/kg). The PPI test was conducted 10 min after injection of methamphetamine. Data were expressed as the mean±S.E.M. Statistical comparisons among groups were analyzed by ANOVA with Tukey post hoc test, and differences between groups were analyzed by Student's t-test. Two-way ANOVA with Bonferroni's post hoc test was used to analyze differences in the time courses of locomotor activity among groups. Differences were considered significant if P<0.05.
Methamphetamine and apomorphine were dissolved in normal saline for i.p. And s.c. Injections, respectively. Tested compounds and haloperidol, when given by i.p. Injection, were dissolved in a vehicle containing 20% dmso, 20% Cremophor® el (polyoxyethylene castor, sigma-aldrich) and 60% normal saline. Furosemide was dissolved (20 nmole/μL) in dimethylsulfoxide for intra-cerebellar microinjection the i.p. or s.c. Injection volume was 10 mL/kg.

α6β3γ2 receptor = biological target: T1, α6β3γ2 receptor (Rattus norvegicus, UniProt P30191+P63079); test: Electrophysiology in Xenopus oocytes, modulation of GABA currents; format: cell-based; conditions: modulation of GABA EC3 currents
T1 construct: expressed in transfected cells; host or cells: Xenopus laevis oocytes injected with subunit mRNA (3:1:5)
T1 sequence (P30191 20-453): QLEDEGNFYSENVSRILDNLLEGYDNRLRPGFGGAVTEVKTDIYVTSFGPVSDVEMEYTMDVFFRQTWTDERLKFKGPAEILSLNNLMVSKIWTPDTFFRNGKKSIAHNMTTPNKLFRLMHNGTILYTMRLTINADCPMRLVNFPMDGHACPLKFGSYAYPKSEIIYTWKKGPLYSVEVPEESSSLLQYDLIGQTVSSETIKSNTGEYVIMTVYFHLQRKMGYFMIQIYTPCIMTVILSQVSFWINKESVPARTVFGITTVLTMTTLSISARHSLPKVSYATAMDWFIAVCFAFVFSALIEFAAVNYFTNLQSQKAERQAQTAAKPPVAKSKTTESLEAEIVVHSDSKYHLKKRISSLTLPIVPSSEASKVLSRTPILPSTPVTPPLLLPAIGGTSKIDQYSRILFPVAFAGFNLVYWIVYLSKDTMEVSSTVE
T1 sequence (P63079 26-473): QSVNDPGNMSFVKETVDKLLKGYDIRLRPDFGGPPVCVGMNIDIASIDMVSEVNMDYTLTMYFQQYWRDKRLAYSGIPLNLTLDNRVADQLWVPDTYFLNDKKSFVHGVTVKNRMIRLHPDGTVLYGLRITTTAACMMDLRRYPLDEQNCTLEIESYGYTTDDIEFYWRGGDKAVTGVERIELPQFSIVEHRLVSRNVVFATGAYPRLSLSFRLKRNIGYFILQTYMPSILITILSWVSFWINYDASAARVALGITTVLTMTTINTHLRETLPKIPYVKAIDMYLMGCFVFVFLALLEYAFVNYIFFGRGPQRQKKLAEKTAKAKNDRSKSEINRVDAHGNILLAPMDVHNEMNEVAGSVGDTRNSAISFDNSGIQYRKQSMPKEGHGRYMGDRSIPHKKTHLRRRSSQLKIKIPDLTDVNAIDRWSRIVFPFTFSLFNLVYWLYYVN
T1 sequence (P18508 39-466 partner): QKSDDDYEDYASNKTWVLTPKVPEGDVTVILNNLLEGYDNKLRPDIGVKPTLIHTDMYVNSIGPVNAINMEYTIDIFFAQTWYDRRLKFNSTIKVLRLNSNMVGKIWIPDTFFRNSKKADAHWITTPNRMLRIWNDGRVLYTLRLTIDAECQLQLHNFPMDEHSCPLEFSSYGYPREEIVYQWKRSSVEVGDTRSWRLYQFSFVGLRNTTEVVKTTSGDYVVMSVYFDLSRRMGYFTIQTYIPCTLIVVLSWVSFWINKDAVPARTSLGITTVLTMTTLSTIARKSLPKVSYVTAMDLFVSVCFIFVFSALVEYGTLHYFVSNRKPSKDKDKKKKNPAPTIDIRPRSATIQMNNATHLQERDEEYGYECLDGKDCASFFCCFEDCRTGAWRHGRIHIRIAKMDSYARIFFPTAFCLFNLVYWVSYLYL
Procedure: Mature female Xenopus laevis (Nasco, Fort Atkinson, Wis., USA) were anaesthetized in a bath of ice-cold 0.17% Tricain (Ethyl-m-aminobenzoat, Sigma-Aldrich, St. Louis, Mo., USA) before decapitation and transfer of the frog's ovary to ND96 medium (96 mM NaCl, 2 mM KCl, 1 mM MgCl2, 5 mM HEPES; pH 7.5). Following incubation in 1 mg/mL collagenase (Sigma-Aldrich, St. Louis, Mo., USA) for 30 min, stage 5 to 6 oocytes were singled out of the ovary and defolliculated using a platinum wire loop. Oocytes were stored and incubated at 18° C. in NDE medium (96 mM NaCl, 2 mM KCl, 1 mM MgCl2, 5 mM HEPES, 1.8 mM CaCl2; pH 7.5) that was supplemented with 100 U per mL-1 penicillin, 100 μg per mL-1 streptomycin and 2.5 mM pyruvate. Oocytes were injected with an aqueous solution of mRNA. A total of 2.5 ng of mRNA per oocyte was injected. Subunit ratio was 1:1:5 for αxβγ2 (x=1, 2, 3, 5) and 3:1:5 for α4/6β3γ2 and αβδ receptors. Injected oocytes were incubated for at least 36 h before electrophysiological recordings. Oocytes were placed on a nylon-grid in a bath of NDE medium. For current measurements, the oocytes were impaled with two microelectrodes (2-3MΩ), which were filled with 2 M KCl. The oocytes were constantly washed by a flow of 6 mL per min-1 NDE that could be switched to NDE containing GABA and/or drugs. Drugs were diluted into NDE from DMSO solutions resulting in a final concentration of 0.1% DMSO. […] To test for modulation of GABA induced currents by compounds, a GABA concentration that was titrated to trigger 3-5% of the respective maximum GABA-elicited current of the individual oocyte (EC3-5) was applied to the cell together with various concentrations of tested compounds. All recordings were performed at room temperature at a holding potential of −60 mV using a Warner OC-725C TEV (Warner Instrument, Hamden, Conn., USA) or a Dagan CA-1B Oocyte Clamp or a Dagan TEV-200A TEV (Dagan Corporation, Mineapolis, Minn., USA). Data were digitized using a Digidata 1322A or 1550 data acquisition system (Axon Instruments, Union City, Calif., USA), recorded using Clampex 10.5 software (Molecular Devices, Sunnyvale, Calif., USA), and analyzed using Clampfit 10.5 and GraphPad Prism 6.0 (La Jolla, Calif., USA) software. Concentration-response data were fitted using the Hill equation. Data are given as mean±SEM from at least three oocytes of two batches.
For selected test compounds full dose response curves were recorded in α1-6β3γ2 receptors. For selected compounds, dose response curves in additional receptor subtypes (α1, 4, 6β3δ, α6β1, 2γ2, α1-6β3) were also obtained. For a wider panel of compounds, a two point screening pharmacology was obtained at 1 and 10 μM compound concentrations.

SMILES	% left after 1 hr. (MLM) [1] [%]	Half-life (min) (MLM) [1]	% left after 1 hr. (HLM) [2] [%]	Half-life (min) (HLM) [2]	effect of intra-cerebellar furosemide on the rescue of PPI ([3]; furosemide 10 nmol intra-cerebellar microinjection)	rescue of METH-impaired PPI [3]	rescue of METH-impaired PPI ([3]; listed as C11)	selectivity for α6β3γ2 over other αxβ3γ2 receptors (α6β3γ2 receptor)	half-life at 10 μM ([1]; mouse, liver microsomes, pH 7.4, read-out: Half-life (min) (MLM))	half-life at 10 μM ([2]; human, liver microsomes, pH 7.4, read-out: Half-life (min) (HLM))
COc1ccc2c3nn(-c4ccc(OC)nc4)c(=O)c-3c[nH]c2c1 [DK-II-13-1, 7-Methoxy-2-(6-methoxypyridin-3-yl)-2,5-dihydro-3H-pyrazolo[4,3-c]quinolin-3-one]	74.77 ± 0.12	139.2 ± 5.8	93 ± 0.14	794 ± 182	–	–	–	–	–	–
[2H]C([2H])([2H])Oc1ccc(-n2nc3c4cc(Cl)ccc4[nH]cc-3c2=O)cn1 [DK-II-59-1, 8-Chloro-2-(6-methoxy-d3-pyridin-3-yl)-2,5-dihydro-3H-pyrazolo[4,3-c]quinolin-3-one]	85.1 ± 0.10	250.62 ± 13	93 ± 0.12	725.8 ± 146	–	–	–	–	–	–
COc1ccc(-n2nc3c4cc(Cl)ccc4[nH]cc-3c2=O)cn1 [DK-II-18-1, 8-Chloro-2-(6-methoxypyridin-3-yl)-2,5-dihydro-3H-pyrazolo[4,3-c]quinolin-3-one]	85.6 ± 0.12	265 ± 17	91.6 ± 0.10	511 ± 44	–	–	–	–	–	–
[2H]C([2H])([2H])Oc1ccc(-n2nc3c4ccc(Br)cc4[nH]cc-3c2=O)cn1 [DK-II-58-1, 7-Bromo-2-(6-methoxy-d3-pyridin-3-yl)-2,5-dihydro-3H-pyrazolo[4,3-c]quinolin-3-one]	98.39 ± 0.06	4250 ± 0.001	97.8 ± 0.06	2341 ± 0.001	–	–	–	–	–	–
[2H]C([2H])([2H])Oc1ccc(-n2nc3c4ccc(OC)cc4[nH]cc-3c2=O)cn1 [DK-II-60-1, 7-Methoxy-2-(6-methoxy-d3-pyridin-3-yl)-2,5-dihydro-3H-pyrazolo[4,3-c]quinolin-3-one]	92.4 ± 0.12	640 ± 102	92.5 ± 0.12	592.5 ± 96	–	–	–	–	–	–
[2H]C([2H])([2H])Oc1ccc(-n2nc3c4cc(Cl)ccc4[nH]cc-3c2=O)cc1 [DK-I-93-1, 8-Chloro-2-(4-methoxy-d3-phenyl)-2,5-dihydro-3H-pyrazolo[4,3-c]quinolin-3-one]	85.53 ± 0.07	263 ± 5.96	92.2 ± 0.15	640 ± 126	–	–	–	–	–	–
COc1ccc(-n2nc3c4cc(Cl)ccc4[nH]cc-3c2=O)cc1 [Compound 11, 8-Chloro-2-(4-methoxyphenyl)-2,5-dihydro-3H-pyrazolo[4,3-c]quinolin-3-one]	69.2 ± 0.15	–	72.5 ± 0.11	–	prevented	effective; also recorded: significantly rescued	significantly rescued	strongly modulates other GABAA receptor subtypes	116 ± 5.2	135 ± 5
